Reference: US20140303242A1, “Sparstolonin B Based Pharmaceutical Agent to Treat Pathological Angiogensis” (University of South Carolina, priority 2013, published 2014)
Entries after “also recorded” stand apart in the source; their conditions may differ.

Columns and labels:
HCAECs = test: Matrigel tube formation assay (HCAECs); format: cell-based, human; details: between 1 and 100 μM, 4 h
Procedure: To initially determine if SsnB inhibited pro-angiogenic cell functions, a tube formation assay with Matrigel was performed. Growth factor reduced Matrigel (BD Biosciences, Bedford, Mass.) was added to the wells of a 96 well polystyrene culture plate and incubated at 37° C. for 30 minutes. Cells (HUVECs, HCAECs, or HMVECs at passage 2 to 4) were added to each well to reach a final number of 20,000 cells per well. SsnB was added to the wells at a concentration of 1, 10, or 100 μM. Endothelial cell medium with DMSO (0.1%) was used as a vehicle control. Each group contained 4 replicates. The plates were placed in an incubator for 4 h. During the incubation, the endothelial cells formed elongated structures called cords, also known as tubes. After 4 h, neutral buffered formalin was added to fix the cells. Pictures of three non-overlapping fields were taken from each well. The lengths of single cell endothelial cords were measured with Image-Pro Plus (Media Cybernetics, Silver Spring, Md.), and the sum of tube lengths for each well was determined. The average total length and standard deviation for each group were determined, and the appropriate statistical tests (ANOVA and Newman-Keuls) were completed. The tube formation assay was replicated three times for both HUVECs and HCAECs. The assay was also repeated with cardiac HMVECs.

HUVECs [1] = test: Cell cycle analysis, propidium iodide flow cytometry; format: cell-based, human
Procedure: Cell cycle analysis was performed using propidium iodide staining and flow cytometry. HUVECs (approximately 75% confluent) cultured in 6 well polystyrene culture plates coated with 0.1% gelatin were serum starved for 24 hours in low serum medium containing 0.5% fetal bovine serum and no endothelial cell mitogen to synchronize the cells in the G1/S phase. After 24 hours, the low serum medium was replaced with treatments of either 100 μM SsnB or vehicle control (0.1% DMSO) diluted in complete growth medium (10% fetal bovine serum with endothelial cell mitogen) in triplicate. The treated cells were incubated for 24, 30, and 36 hours. After incubation, the cells were trypsinized, transferred to 5 ml polysytrene round bottom tubes (12×75 mm), and centrifuged. The medium was aspirated, and the cells were washed with PBS. After fixing the cells with ice-cold 70% ethanol for 15 min, the cells were centrifuged and stained with propidium iodide for 30 min. The samples were then analyzed with a flow cytometer (Beckman Coulter FC500). The unstained and stained cell groups were used to calibrate the settings on the flow cytometer. The data were collected and analyzed with ModFit software.

HUVECs [2] = test: Real time RT-PCR gene expression (HUVECs); format: cell-based, human; details: 24 h
Procedure: After a careful analysis of the microarray data, key genes (CDC6, CCNE2, KITLG, ALDH3A1, CCNB1, CDC2, HMMR, DIAPH3, ANLN, and CDKN3) were chosen for quantitative real-time PCR (qRT-PCR) to verify the gene expression results. HCAECs and HUVECs were exposed to SsnB or vehicle control for 24 h (as previously described in the microarray section). For RT-PCR, RNA was isolated from the cells with the RNeasy Mini kit as described previously. After forward and reverse primer kits (Qiagen, Valencia, Calif.) were selected, the RNA was amplified. The one-step RT-PCR reactions were completed on the BioRad iCycler thermal cycler system in the Instrumentation Resource Facility at the USC School of Medicine. The expression levels were normalized, and RNA levels were quantified.
Microarray data analysis, including data normalization (robust multi-array average), identification of differentially expressed genes (comparative analyses with dChip software), and heat map construction, was carried out to determine how SsnB affects gene expression and affected pathways (n=2 for HUVECs and n=3 for HCAECs). After a careful analysis of the microarray data, several key genes were chosen for qRT-PCR to verify the gene expression results. The genes were chosen based on the following criteria: fold change ≧2, p<0.05, unpaired t-test with a false discovery rate approximating 0%, appearing in both data sets (HUVECs and HCAECs), and gene function relating to cell proliferation and/or angiogenesis. For qRT-PCR, the expression levels were normalized to the housekeeping gene GAPDH, and RNA levels were compared between groups with the ΔΔCt method.

[3] = test system: chick chorioallantoic membrane (CAM); test: Chick chorioallantoic membrane (CAM) assay; format: in vivo; details: methylcellulose disc, 100 micromolar SsnB
Procedure: To investigate the effects of SsnB on in vivo angiogenesis, a chick chorioallantoic membrane (CAM) assay was utilized. Chick embryos were exposed to methylcelluose discs containing vehicle control (DMSO) or 100 micromolar SsnB.
Methylcellulose discs were created with a solution of 0.5% methylcellulose (diluted in sterile deionized water). A methylcellulose solution of 100 micromolar SsnB was made by adding 1.1 microliters of stock SsnB (93 mM) to 1 ml 0.5% methylcellulose. A vehicle control solution was created by adding 1 microliter of dimethyl sulfoxide (DMSO) to 1 ml 0.5% methylcellulose. Discs were created by placing 20 microliter droplets of SsnB or vehicle control solution onto polytetrafluoroethylene tape (to minimize sticking during drying) and allowed to dry under a laminar flow hood.
The fertilized eggs were placed in a humidified egg incubator with forced air circulation at 37° C. The eggs were automatically rotated every three hours. After 4 days of incubation, the eggs were removed and cracked. Chick embryos with intact yolks were placed in 100 mm petri plates. Each petri plate was placed in a weigh boat containing 13 ml Moscona's buffer and covered with cellophane wrap with two holes for air circulation. The plates were placed in a water-jacketed incubator (37 C, 5% CO2) for 2 days. After 2 days of incubation, the methylcellulose discs containing either SsnB or vehicle control were placed on top of the CAM of each embryo in the right upper quadrant in an area near the allantoic vessels. After 2 additional days of incubation, the CAMs were examined and photographed with a dissecting stereomicroscope. Images were taken of areas containing the discs and non-treated regions. Each group contained seven embryos (calculated with PS 3.0.5 software, effect size of 50%, standard deviation of 30%, statistical power of 0.8, and α=0.05). The CAM assay was completed two times.
Images were analyzed with ImagePro Plus software. Blood vessel length and branching number were utilized to measure the effect of SsnB on angiogenesis. The vessel length was measured for areas containing the discs and non-treated regions. Normalized vessel length was calculated by dividing the length values of the treated regions by those of the non-treated regions. The same process was repeated for measuring the branching number.

[4] = test system: Toll-like Receptors 2 and 4 (TLR2 and TLR4); details: mouse and human macrophages, prior research; cited from earlier work
[5] = synchronized HUVECs, 100 μM SsnB, 24, 30 and 36 hours, vs vehicle control
[6] = SsnB vs vehicle control, normalized to GAPDH

In the case of `O=c1occ2c3c(ccc(O)c13)Oc1ccc(O)cc1-2` [SsnB, Sparstolonin B], the “HCAEC tube formation on Matrigel” value (HCAECs) is reported as “dose-dependent inhibition”, the G2/M blockage (HUVECs [1]; non-synchronized (no serum starvation) HUVECs) is reported as “G2/M blockage was observed” and the “percentage of cells in the G1 phase” value (HUVECs [1]; [5]) is reported as “increase”. The “percentage of cells in the S phase” value (HUVECs [1]; [5]) was “decrease”, the “ALDH3A1 expression (qRT-PCR)” value (HUVECs [2]) was 1280 % of controls and the “KITLG expression (qRT-PCR)” value (HUVECs [2]) was 400 % of controls. For the same compound, the “ALDH3A1 PCR 2^ΔΔCt value” (HUVECs [2]; [6]) was 12.8, the “ANLN PCR 2^ΔΔCt value” (HUVECs [2]; [6]) was 0.20 and the “CCNB1 PCR 2^ΔΔCt value” (HUVECs [2]; [6]) was 0.40. For the same compound, the “CCNE2 PCR 2^ΔΔCt value” (HUVECs [2]; [6]) was 0.64, the “CDC2 PCR 2^ΔΔCt value” (HUVECs [2]; [6]) was 0.14 and the “CDC6 PCR 2^ΔΔCt value” (HUVECs [2]; [6]) was 0.35. The “CDKN3 PCR 2^ΔΔCt value” (HUVECs [2]; [6]) was 0.18, the “DIAPH3 PCR 2^ΔΔCt value” (HUVECs [2]; [6]) was 0.19 and the “HMMR PCR 2^ΔΔCt value” (HUVECs [2]; [6]) was 0.24. The “KITLG PCR 2^ΔΔCt value” (HUVECs [2]; [6]) was 4.0, the “blood vessel diameter and size” value ([3]; 2 days) was “decrease” and the normalized branch number ([3]; 2 days, vs vehicle control) was “significant decrease; also recorded: significant reduction”. For the same compound, the “normalized blood vessel length (capillary length)” value ([3]; 2 days, vs vehicle control, p<0.05) was “significant decrease; also recorded: significant reduction”, the “viability or morphology of the embryos” value ([3]; relative to vehicle control) was “no effect” and the “inflammatory responses of macrophages to ligands for TLR2 and TLR4” value [4] was “selectively inhibiting”.
